Assay [1] has as its system IL-6 cytokine. Briefly: Secreted IL-6 in LPS-treated human primary glial cells (MSD ELISA). The following applies: LPS 6 h, then purine derivative 10 μM for 18 h. Format: cell-based. The method, then: For assessing the cytokine production, human primary glial cells were grown until confluent on coated collagen 12-well plates. Cells were serum-starved in glial serum-free medium for 2 h and treated with LPS for 6 h before treatment with purine derivatives (10 μM) for an additional 18 h. Supernatants were harvested and secreted IL-6 cytokine was measured by ELISA by the mean of the Meso Scale Discovery (MSD) technology. Briefly, a 96-well plate having 1 spot pre-coated with the corresponding antibody is provided by MSD Technology. Before adding the samples, a first saturation step is required. Once the plate is saturated and washed, 25 μL of sample (or calibrators) per well are loaded and incubated for 1 hour. Then the plate is washed and incubated with 25 μL of the Detection Antibody solution (MSD SULFO-TAG) for 1 hour. At the end of the incubation, the plate is washed and then a chemical solution (Read buffer 1×) is added allowing electrochemiluminescence. After a short incubation (5 min) at room temperature, the plate is read on the QUICK Plex SQ120. The instrument measures the intensity of the light electrochemiluminescence.
Background: ELISA stands for enzyme-linked immunosorbent assay.

Assay [2] relates to p-Tau (Thr212). As to the kind of experiment: p-Tau (Thr212)/total Tau in rat cortical neurons (western-blot). In kind it is cell-based. The following applies: purine derivative 10 μM (A100), 18 h. As for the experimental part: Cells were lysed in freshly prepared lysis buffer containing in mM: Tris-HCl 50, EDTA 2, EGTA 2, NaCl 100, SDS 0.2%, Triton X-100 1%, proteases inhibitors (Roche Protease Inhibitor Cocktail #04693116001), phosphatases inhibitors (in mM: ammonium molybdate 0.1, β-glycerophosphate 20, NaF 50, Na-pyrophosphate 10, Orthovanadate 1). Protein concentration was measured by the Bradford assay and Laemmli buffer was added to each lysate. Proteins (10 μg per lane) were resolved on 12% Nu-PAGE (LifeTechonoliges #NP0342BOX) using MOPS SDS running buffer and transferred on Immobilon-FL PVDF membrane (Millipore #IPFL00010). Membranes were blocked one hour in TBS Tween20 0.1% BSA 5% at room temperature. Primary antibodies were incubated O/N at 4° C. and detected by Alexa 488 conjugated secondary antibodies (Life Techonologies #A11034 and A11029) diluted 1:1.000 in TBS Tween20 0.05% and 1% BSA. The antibodies specific for pThr212-Tau (Abcam #ab4842), pThr181-Tau (AbCam #ab75679), Tau (Millipore #MAB361), APP (Millipore #07-667) and Actin (Millipore #MAB1501) were diluted in TBS Tween20 0.05% and 1% BSA. Fluorescent signal was visualized with the VersaDoc™ Imaging System (Bio-Rad Laboratories) and quantified with Quantity One® Analysis Software. Grey levels measured for bands of interest were normalized to the corresponding actin bands.
For assessing the protein Tau's phosphorylation, the culture media of rat cortical neurons were replaced by incubation medium containing purine derivatives at 10 μM (A100) or vehicle (0.1% DMSO; Control). After 18 h incubation p-Tau (Thr212) and total Tau were quantified in the cellular extracts by western-blot.

For the compound `CC[C@@H](CO)Nc1nc(N(C)c2ccccc2)c2ncn(C(C)C)c2n1` [Compound 26], the “Anti-inflammatory Compounds (secreted IL-6)” value (“Anti-inflammatory Compounds” below) in assay [1] is listed as “+(>1 μM) (“+” means that the tested compound shows an anti-inflammatory and/or attenuation of Tau's phosphorylation property with a concentration higher than 1 μM)”.

As to `CC[C@H](CO)Nc1nc(N(C)Cc2ccccc2)c2ncn(C3CCCC3)c2n1` [Compound 14], in assay [2], the “Attenuation of P-Tau/Tau ratio” value is on record as “+(>1 μM) (“+” means that the tested compound shows an anti-inflammatory and/or attenuation of Tau's phosphorylation property with a concentration higher than 1 μM)”. For the same compound, the “Anti-inflammatory Compounds” value in assay [1] is listed as “+(>1 μM) (“+” means that the tested compound shows an anti-inflammatory and/or attenuation of Tau's phosphorylation property with a concentration higher than 1 μM)”.

Take `CC[C@H](CO)Nc1nc(N(C)Cc2ccccc2)c2ncn(C(C)C)c2n1` [Aftin-4]: the “Anti-inflammatory Compounds” value in assay [1] is listed as “+(>1 μM) (“+” means that the tested compound shows an anti-inflammatory and/or attenuation of Tau's phosphorylation property with a concentration higher than 1 μM)”.

Turning to `CCN(Cc1ccccc1)c1nc(N[C@@H](CO)C(C)C)nc2c1ncn2C1CCCC1` [Compound 15], the “Attenuation of P-Tau/Tau ratio” value in assay [2] is recorded as “+(>1 μM) (“+” means that the tested compound shows an anti-inflammatory and/or attenuation of Tau's phosphorylation property with a concentration higher than 1 μM)”. Further, in assay [1], the “Anti-inflammatory Compounds” value is “+(>1 μM) (“+” means that the tested compound shows an anti-inflammatory and/or attenuation of Tau's phosphorylation property with a concentration higher than 1 μM)”.

In the case of `CC[C@H](CO)Nc1nc(NCc2ccccc2)c2ncn(C(C)C)c2n1` [Roscovitine, (R)-roscovitine, reference compound], the “Anti-inflammatory Compounds” value in assay [1] is listed as “+(>1 μM) (“+” means that the tested compound shows an anti-inflammatory and/or attenuation of Tau's phosphorylation property with a concentration higher than 1 μM)”.

Regarding `CC[C@H](CO)Nc1nc(OCc2ccccc2)c2ncn(C(C)C)c2n1` [Compound 31], the “Attenuation of P-Tau/Tau ratio” value in assay [2] is “+(>1 μM) (“+” means that the tested compound shows an anti-inflammatory and/or attenuation of Tau's phosphorylation property with a concentration higher than 1 μM)”. Moreover, the “Anti-inflammatory Compounds” value in assay [1] is “+(>1 μM) (“+” means that the tested compound shows an anti-inflammatory and/or attenuation of Tau's phosphorylation property with a concentration higher than 1 μM)”.

Consider `CCN(CC)CCNc1nc(N(CC)Cc2ccccc2)c2ncn(C3CCCC3)c2n1` [Compound 22], for which the “Attenuation of P-Tau/Tau ratio” value in assay [2] is reported as “+(>1 μM) (“+” means that the tested compound shows an anti-inflammatory and/or attenuation of Tau's phosphorylation property with a concentration higher than 1 μM)”. Further, in assay [1], the “Anti-inflammatory Compounds” value is given as “+(>1 μM) (“+” means that the tested compound shows an anti-inflammatory and/or attenuation of Tau's phosphorylation property with a concentration higher than 1 μM)”.

Consider `CCCN(Cc1ccccc1)c1nc(N[C@H](CC)CO)nc2c1ncn2C(C)C` [Compound 20], for which the “Attenuation of P-Tau/Tau ratio” value in assay [2] is given as “+(>1 μM) (“+” means that the tested compound shows an anti-inflammatory and/or attenuation of Tau's phosphorylation property with a concentration higher than 1 μM)”. Also, the “Anti-inflammatory Compounds” value in assay [1] was “+(>1 μM) (“+” means that the tested compound shows an anti-inflammatory and/or attenuation of Tau's phosphorylation property with a concentration higher than 1 μM)”.

With `CC[C@H](CO)Nc1nc(N(CC)Cc2ccccc2)c2ncn(C(C)C)c2n1` [Compound 13], in assay [2], the “Attenuation of P-Tau/Tau ratio” value is listed as “+(>1 μM) (“+” means that the tested compound shows an anti-inflammatory and/or attenuation of Tau's phosphorylation property with a concentration higher than 1 μM)”. In addition, the “Anti-inflammatory Compounds” value in assay [1] is listed as “+(>1 μM) (“+” means that the tested compound shows an anti-inflammatory and/or attenuation of Tau's phosphorylation property with a concentration higher than 1 μM)”.

These data come from patent publication US11472807B2, “Purine derivatives for use as medicament and for use in treating neurodegenerative or neuro-inflammatory disorders” (COMMISSARIAT À L'ENERGIE ATOMIQUE ET AUX ENERGIES …, priority 2017, dated 2022).
